Data from patent publication US9321737B2, “CDK8-CDK19 selective inhibitors and their use in anti-metastatic and chemopreventative methods for cancer” (SENEX BIOTECHNOLOGY INC, priority 2012, dated 2016).

How the values were obtained:
[1] = test system: CDKI pathway (CMV promoter stimulation by p21) in HT1080 fibrosarcoma cells; experiment: CDKI pathway inhibition cellular assay (CMV-GFP induction by IPTG-inducible p21); format: cell-based, human; conditions: for activity in cell-based CDKI pathway assay: CMV-GFP
Protocol: The compounds described below are shown in Table 1 and the structures of some novel compounds according to the invention are shown in FIG. 1. […] All the compounds were tested for the ability to inhibit the CDKI pathway in a cellular assay described in our previous patent application PCT/US06/01046. This assay is based on the induction of green fluorescent protein (GFP) expression from the cytomegalovirus (CMV) promoter in human HT1080 fibrosarcoma cells that express CDKI p21 from an isopropyl-β-thio-galactoside (IPTG)-inducible promoter. The compound activity as a CDKI pathway inhibitor is measured by its ability to prevent the stimulation of the CMV promoter upon the addition of p21-inducing IPTG. CMV promoter activity is measured by the ratio of GFP fluorescence to the relative cell number, as determined by staining cellular DNA with Hoechst 33342.

[2] = Solubility in 20% propylene glycol; format: physicochemical
Protocol: (§1) The compounds were also tested for solubility in 20% propylene glycol and in water, as follows. Compounds (dry powder) were dissolved in 20% propylene glycol at a concentration of 1 mM at a temperature of 40° C. with occasional vortexing. After 30 min, the solution was centrifuged at 10,000×g for 5 min. Serial dilutions of the cleared supernatant were prepared and used to measure the compound concentrations through OD reading, relative to 1 μM standard solution of the same compound. The results of the measurement were expressed as % solubility of the compound at 1 mM in 20% propylene glycol. To determine water solubility, the compounds (dry powder) were initially dissolved in water at a concentration of 100 mM at a temperature of 40° C. with occasional vortexing. After 30 min, the solution was centrifuged at 10,000×g for 5 min, and the formation of an insoluble pellet was monitored. At subsequent steps, the compound was attempted to be dissolved at lower concentrations, until no pellet was observed after centrifugation, indicating complete solution of the compound.

[3] = Water solubility; format: physicochemical; conditions: 40° C., 30 min, no pellet after centrifugation
Protocol: as §1

[4] = target: CDK19 (Homo sapiens, UniProt Q9BWU1); experiment: KinomeScan ATP pocket binding inhibition, CDK19; conditions: 2,000 nM
Source text: (§2) (16) The results of this analysis are presented in FIGS. 6A-B in the form of an evolutionary dendrogram of the kinase family, where kinase inhibition is represented by red circles, the size of which represents the magnitude of the inhibition.

[5] = target: T1, CDK8 (Homo sapiens, UniProt P49336); experiment: KinomeScan ATP pocket binding inhibition, CDK8; conditions: 2,000 nM
Source text: as §2

[6] = target: T2, MAP4K2 (Homo sapiens, UniProt Q12851); experiment: KinomeScan ATP pocket binding inhibition, MAP4K2; conditions: 2,000 nM
T2 construct: purchased KinomeScan, a division of Ambit Biosciences
T2 sequence (Q12851 1-820): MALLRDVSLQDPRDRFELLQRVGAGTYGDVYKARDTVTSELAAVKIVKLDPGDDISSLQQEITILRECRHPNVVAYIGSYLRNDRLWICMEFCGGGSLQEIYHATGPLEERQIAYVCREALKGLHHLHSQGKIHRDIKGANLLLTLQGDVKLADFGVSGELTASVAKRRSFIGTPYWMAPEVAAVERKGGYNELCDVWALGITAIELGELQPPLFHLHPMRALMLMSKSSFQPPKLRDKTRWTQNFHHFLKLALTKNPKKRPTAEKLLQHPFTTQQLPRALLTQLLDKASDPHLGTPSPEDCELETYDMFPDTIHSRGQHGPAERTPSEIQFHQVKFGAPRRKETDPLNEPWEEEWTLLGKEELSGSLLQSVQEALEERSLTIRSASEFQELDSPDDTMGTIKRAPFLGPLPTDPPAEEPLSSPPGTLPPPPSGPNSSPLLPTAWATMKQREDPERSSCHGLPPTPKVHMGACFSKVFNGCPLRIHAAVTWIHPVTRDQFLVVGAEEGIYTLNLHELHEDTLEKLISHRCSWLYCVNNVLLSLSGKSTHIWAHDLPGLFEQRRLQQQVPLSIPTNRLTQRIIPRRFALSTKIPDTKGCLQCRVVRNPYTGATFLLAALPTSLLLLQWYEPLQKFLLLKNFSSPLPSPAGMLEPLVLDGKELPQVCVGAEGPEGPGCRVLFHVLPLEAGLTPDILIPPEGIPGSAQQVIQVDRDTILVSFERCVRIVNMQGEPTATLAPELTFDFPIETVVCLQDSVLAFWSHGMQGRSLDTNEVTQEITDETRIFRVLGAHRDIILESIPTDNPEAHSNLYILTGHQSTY
Source text: as §2

[7] = test system: >450 kinases; experiment: KinomeScan ATP pocket binding inhibition, rest of panel; conditions: 2,000 nM
Source text: as §2

[8] = 12-day animal toxicity study; format: in vivo, Balb/c mice; conditions: 40 mg/kg i.p.
[9] = test system: MDA-MB-231; experiment: MDA-MB-231 orthotopic TNBC xenograft; format: in vivo, female SCID mice; conditions: 40 mg/kg, 5 daily doses, three rounds
Protocol: Once tumors were formed, mice were randomized into 4 cohorts (n=10) and treated, at 7-10 day intervals, with three rounds of: vehicle (5 daily doses), 1 mg/kg doxorubicin (single dose), 40 mg/kg Senexin B (5 daily doses) or doxorubicin (single dose)+Senexin B (5 daily doses).

[10] = test system: MDA-MB-468 TNBC tumor invasion; experiment: Histological analysis of MDA-MB-468 tumor invasion (H&E); format: in vivo, female nude mice; conditions: tumors from FIG. 15B experiment
Source text: At the end of the experiment shown in FIG. 15B, mice were sacrificed, tumors were removed, formalin fixed, sectioned and processed for histological analysis after H&E staining.

[11] = target: T1, CDK8; experiment: In vitro CDK8 kinase activity inhibition (ProQinase assay kit); conditions: read-out: IC50, inhibition of CDK8 kinase activity, different assays

T1 sequence (P49336 whole entry): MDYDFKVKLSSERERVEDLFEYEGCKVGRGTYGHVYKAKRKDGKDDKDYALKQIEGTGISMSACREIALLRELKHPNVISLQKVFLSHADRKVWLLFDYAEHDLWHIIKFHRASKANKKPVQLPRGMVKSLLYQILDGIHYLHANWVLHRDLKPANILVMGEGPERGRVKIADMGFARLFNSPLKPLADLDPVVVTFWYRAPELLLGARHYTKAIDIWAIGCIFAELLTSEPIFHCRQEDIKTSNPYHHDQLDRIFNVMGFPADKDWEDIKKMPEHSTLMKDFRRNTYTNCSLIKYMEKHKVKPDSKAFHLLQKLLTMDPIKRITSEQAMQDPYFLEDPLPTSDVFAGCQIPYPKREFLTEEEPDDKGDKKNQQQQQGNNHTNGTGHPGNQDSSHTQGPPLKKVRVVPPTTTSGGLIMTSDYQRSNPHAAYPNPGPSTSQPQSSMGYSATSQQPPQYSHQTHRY
Chain of CDK19 (Q9BWU1 whole entry): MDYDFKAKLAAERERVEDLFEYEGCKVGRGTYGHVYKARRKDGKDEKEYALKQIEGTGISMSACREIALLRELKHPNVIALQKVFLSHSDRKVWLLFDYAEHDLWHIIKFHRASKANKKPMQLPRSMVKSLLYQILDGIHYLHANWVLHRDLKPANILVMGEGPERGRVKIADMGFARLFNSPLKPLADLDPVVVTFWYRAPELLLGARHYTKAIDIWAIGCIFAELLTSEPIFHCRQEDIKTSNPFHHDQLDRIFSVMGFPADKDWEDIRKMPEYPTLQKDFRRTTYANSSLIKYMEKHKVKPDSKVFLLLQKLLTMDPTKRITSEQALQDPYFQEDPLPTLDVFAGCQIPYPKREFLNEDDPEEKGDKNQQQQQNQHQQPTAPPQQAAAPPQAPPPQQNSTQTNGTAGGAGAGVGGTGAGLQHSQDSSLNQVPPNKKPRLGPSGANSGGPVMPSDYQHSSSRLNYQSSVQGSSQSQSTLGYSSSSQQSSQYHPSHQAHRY

CN1CCN(C(=O)c2ccc3cc(CCNc4ncnc5ccc(C#N)cc45)ccc3c2)CC1 [SNX2-1-165]
activity in cell-based CDKI pathway assay ([1]; IPTG-inducible p21): more active than any of the previously developed SNX2-class compounds
activity in cell-based CDKI pathway assay ([1]; IPTG-inducible p21, listed as Senexin B): potently inhibited
EC50 ([1]; IPTG-induced p21, CMV-GFP / Hoechst 33342, read-out: Cell-based Assay EC50): 530 nM
% solubility at 1 mM in 20% propylene glycol ([2]; 1 mM, 40° C., 30 min, centrifuged, OD reading): 100%
solubility in 20% propylene glycol ([2]; at 1 mM): fully soluble
Water Solubility [3]: ≥ 50 mM
Water Solubility ([3]; listed as 165): Soluble at 50 mM
% inhibition of CDK19 [4]: 98.6%
% inhibition of CDK8 [5]: 97.8%
% inhibition of MAP4K2 [6]: 69%
% inhibition of all other kinases in the panel [7]: ≤ 50%
body weight gains at end of study ([8]; 5 daily doses, 2-day break): indistinguishable from the carrier-treated mice
decrease in lymphocytes (blood counts) ([8]; 12-day study): ~25%
spleen weight decrease ([8]; 12-day study): ~20%
blood counts, other cell types ([8]; 12-day study, relative to control mice): no changes
body weight difference from control [9]: no significant weight difference from the control
invasive or non-invasive tumor growth [10]: non-invasive
IC50 [11]: 24 to 50 nM
